Tests used:
[1] = target: Cytoplasmic tyrosine-protein kinase BMX (Homo sapiens) (UniProt P51813); assay: Inhibition of BMX (unknown origin) at 0.164 uM relative to control
[2] = target: T1, Serine/threonine-protein kinase DCLK1 (Homo sapiens) (UniProt O15075); assay: Inhibition of DCAMKL1 (unknown origin) at 0.164 uM relative to control
T1 sequence (whole entry): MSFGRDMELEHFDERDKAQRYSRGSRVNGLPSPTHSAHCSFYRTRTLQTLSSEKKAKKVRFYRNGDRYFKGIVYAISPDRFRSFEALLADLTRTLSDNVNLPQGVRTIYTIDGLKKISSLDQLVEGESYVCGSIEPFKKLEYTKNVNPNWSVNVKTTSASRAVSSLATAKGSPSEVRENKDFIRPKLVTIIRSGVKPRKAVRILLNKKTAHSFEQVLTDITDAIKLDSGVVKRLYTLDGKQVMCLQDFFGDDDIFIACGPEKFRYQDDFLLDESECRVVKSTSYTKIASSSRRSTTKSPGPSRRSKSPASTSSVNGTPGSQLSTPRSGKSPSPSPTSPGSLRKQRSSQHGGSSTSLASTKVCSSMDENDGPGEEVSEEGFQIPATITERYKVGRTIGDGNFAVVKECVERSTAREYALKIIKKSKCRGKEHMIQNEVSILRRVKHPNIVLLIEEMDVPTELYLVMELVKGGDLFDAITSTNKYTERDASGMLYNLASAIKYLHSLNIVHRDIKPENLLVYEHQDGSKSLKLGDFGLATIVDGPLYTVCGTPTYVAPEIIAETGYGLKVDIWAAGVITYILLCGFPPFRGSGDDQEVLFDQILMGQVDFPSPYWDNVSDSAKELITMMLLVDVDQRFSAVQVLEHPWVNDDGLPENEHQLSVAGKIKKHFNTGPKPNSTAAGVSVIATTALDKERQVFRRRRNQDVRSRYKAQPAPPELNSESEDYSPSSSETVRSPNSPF

[3] = target: PAS domain-containing serine/threonine-protein kinase (Homo sapiens) (UniProt Q96RG2); assay: Inhibition of PASK (unknown origin) at 0.164 uM relative to control
PAS domain-containing serine/threonine-protein kinase (Homo sapiens), sequence (Q96RG2 whole entry, the tested form may be a part): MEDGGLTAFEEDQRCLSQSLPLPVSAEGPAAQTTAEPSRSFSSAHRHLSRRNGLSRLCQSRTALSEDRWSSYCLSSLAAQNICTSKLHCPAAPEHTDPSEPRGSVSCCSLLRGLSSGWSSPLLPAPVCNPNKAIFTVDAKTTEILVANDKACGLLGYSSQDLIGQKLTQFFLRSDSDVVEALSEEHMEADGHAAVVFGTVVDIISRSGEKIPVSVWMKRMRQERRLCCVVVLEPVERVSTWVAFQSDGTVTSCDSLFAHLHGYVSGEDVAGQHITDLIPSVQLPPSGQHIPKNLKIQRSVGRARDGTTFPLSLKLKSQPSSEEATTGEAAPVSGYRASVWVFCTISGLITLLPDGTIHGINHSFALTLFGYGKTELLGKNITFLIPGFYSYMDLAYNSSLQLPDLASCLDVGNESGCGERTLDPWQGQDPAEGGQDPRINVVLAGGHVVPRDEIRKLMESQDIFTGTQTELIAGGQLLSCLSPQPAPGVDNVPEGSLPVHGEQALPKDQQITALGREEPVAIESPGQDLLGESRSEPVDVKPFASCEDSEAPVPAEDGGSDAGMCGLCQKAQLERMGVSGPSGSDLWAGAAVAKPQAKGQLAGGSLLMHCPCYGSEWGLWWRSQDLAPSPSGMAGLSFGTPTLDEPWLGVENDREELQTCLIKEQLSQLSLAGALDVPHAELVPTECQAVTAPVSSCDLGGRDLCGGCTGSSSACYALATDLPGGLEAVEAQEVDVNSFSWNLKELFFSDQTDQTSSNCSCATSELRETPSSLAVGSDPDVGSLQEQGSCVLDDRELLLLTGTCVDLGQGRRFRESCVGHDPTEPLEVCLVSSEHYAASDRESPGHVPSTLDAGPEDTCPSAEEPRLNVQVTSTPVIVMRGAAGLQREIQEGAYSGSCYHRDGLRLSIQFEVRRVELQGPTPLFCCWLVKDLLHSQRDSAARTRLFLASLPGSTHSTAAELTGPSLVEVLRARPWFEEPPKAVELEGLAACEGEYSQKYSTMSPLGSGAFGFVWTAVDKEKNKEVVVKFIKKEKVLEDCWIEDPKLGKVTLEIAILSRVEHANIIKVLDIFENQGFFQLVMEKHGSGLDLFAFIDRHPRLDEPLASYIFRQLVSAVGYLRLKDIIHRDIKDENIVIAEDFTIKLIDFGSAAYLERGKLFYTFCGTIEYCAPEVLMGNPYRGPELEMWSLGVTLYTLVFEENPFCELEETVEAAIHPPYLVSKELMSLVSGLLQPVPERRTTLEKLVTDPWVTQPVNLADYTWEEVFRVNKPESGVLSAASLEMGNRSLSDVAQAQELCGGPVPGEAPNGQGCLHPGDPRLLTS

[4] = target: Macrophage-stimulating protein receptor (Homo sapiens) (UniProt Q04912); assay: Inhibition of MST1R (unknown origin) at 0.45 uM relative to control
Macrophage-stimulating protein receptor (Homo sapiens), sequence (Q04912 25-304 limits assumed): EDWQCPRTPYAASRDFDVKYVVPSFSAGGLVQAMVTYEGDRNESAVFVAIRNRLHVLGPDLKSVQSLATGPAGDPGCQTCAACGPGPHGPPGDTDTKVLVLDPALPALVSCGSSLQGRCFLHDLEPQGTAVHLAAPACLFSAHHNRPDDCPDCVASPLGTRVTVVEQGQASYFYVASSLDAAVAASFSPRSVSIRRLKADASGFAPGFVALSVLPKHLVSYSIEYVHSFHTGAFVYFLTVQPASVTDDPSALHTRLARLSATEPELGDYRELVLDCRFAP
Macrophage-stimulating protein receptor (Homo sapiens), sequence (Q04912 310-1400 limits assumed): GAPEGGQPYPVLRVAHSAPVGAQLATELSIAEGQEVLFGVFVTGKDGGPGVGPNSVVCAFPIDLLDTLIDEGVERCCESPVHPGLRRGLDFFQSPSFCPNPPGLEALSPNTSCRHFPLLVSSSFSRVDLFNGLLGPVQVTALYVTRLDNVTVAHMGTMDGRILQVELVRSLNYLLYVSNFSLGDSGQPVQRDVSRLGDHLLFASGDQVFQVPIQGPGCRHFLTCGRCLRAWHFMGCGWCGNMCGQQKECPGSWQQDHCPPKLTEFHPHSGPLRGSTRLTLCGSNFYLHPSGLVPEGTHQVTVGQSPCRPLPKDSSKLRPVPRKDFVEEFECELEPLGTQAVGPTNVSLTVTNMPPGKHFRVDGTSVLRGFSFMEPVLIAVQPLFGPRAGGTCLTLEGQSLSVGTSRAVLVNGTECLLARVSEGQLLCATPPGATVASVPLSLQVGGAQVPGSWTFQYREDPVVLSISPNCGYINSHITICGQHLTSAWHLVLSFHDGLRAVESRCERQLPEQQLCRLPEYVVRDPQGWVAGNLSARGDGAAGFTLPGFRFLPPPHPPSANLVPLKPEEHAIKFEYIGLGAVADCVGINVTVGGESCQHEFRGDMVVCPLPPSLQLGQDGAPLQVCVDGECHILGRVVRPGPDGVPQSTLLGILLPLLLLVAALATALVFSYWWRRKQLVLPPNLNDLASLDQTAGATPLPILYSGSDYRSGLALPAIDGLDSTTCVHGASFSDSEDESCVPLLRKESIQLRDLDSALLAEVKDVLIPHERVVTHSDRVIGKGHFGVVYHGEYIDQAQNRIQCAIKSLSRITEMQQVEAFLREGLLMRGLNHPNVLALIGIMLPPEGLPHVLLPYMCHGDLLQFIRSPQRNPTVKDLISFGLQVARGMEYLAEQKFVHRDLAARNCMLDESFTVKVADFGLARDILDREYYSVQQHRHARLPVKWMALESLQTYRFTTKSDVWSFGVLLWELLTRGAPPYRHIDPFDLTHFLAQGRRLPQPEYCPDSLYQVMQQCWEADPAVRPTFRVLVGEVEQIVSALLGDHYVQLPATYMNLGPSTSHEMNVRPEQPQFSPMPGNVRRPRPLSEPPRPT

[5] = target: Rho-associated protein kinase 2 (Homo sapiens) (UniProt O75116); assay: Inhibition of ROCK2 (unknown origin) at 0.19 uM relative to control
[6] = target: Macrophage colony-stimulating factor 1 receptor (Homo sapiens) (UniProt P07333); assay: Inhibition of FMS (unknown origin) at 0.19 uM relative to control
Macrophage colony-stimulating factor 1 receptor (Homo sapiens), sequence (P07333 whole entry): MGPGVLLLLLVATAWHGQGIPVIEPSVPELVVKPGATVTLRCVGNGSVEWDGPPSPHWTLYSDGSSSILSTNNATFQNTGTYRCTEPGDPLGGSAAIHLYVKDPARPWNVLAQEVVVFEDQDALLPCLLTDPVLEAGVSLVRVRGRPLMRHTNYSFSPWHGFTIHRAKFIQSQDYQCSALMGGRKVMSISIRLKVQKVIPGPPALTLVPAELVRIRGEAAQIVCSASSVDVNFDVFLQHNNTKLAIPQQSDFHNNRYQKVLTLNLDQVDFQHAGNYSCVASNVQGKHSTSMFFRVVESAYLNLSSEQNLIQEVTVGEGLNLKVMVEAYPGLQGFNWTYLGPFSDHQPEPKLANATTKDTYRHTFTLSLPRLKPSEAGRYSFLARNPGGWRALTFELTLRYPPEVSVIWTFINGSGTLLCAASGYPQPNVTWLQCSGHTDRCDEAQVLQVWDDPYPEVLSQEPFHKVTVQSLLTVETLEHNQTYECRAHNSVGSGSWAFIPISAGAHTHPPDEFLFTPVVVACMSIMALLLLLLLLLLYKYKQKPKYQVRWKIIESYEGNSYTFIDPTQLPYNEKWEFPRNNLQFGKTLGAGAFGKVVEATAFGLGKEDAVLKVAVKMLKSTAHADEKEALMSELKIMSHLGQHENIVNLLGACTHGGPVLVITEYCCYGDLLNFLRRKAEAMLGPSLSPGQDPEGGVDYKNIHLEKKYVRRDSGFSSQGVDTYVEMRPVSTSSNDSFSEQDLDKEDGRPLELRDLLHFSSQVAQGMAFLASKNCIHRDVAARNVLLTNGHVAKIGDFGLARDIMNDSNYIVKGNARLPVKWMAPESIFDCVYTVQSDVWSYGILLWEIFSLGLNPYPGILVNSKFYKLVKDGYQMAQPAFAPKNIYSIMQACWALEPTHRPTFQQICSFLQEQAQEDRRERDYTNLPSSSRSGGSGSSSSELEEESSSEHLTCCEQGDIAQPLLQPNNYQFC

[7] = target: Proto-oncogene tyrosine-protein kinase receptor Ret (Homo sapiens) (UniProt P07949); assay: Inhibition of RET (unknown origin) at 0.19 uM relative to control
[8] = target: Glycogen synthase kinase-3 beta (Homo sapiens) (UniProt P49841); assay: Inhibition of GSK3b (unknown origin) at 0.19 uM relative to control
Glycogen synthase kinase-3 beta (Homo sapiens), sequence (P49841 whole entry, looked up): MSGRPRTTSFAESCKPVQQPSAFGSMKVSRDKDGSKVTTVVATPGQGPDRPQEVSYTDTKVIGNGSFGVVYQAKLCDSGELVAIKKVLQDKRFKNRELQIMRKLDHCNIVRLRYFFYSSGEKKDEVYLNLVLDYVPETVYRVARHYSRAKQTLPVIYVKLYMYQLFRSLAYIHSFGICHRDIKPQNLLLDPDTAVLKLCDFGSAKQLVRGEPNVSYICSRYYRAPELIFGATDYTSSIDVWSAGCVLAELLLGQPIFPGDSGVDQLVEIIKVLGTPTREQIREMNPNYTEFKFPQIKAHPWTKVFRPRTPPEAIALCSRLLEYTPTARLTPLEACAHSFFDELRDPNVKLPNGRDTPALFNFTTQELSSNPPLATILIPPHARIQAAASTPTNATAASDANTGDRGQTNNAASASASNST

Cytoplasmic tyrosine-protein kinase BMX (Homo sapiens), sequence (P51813 whole entry): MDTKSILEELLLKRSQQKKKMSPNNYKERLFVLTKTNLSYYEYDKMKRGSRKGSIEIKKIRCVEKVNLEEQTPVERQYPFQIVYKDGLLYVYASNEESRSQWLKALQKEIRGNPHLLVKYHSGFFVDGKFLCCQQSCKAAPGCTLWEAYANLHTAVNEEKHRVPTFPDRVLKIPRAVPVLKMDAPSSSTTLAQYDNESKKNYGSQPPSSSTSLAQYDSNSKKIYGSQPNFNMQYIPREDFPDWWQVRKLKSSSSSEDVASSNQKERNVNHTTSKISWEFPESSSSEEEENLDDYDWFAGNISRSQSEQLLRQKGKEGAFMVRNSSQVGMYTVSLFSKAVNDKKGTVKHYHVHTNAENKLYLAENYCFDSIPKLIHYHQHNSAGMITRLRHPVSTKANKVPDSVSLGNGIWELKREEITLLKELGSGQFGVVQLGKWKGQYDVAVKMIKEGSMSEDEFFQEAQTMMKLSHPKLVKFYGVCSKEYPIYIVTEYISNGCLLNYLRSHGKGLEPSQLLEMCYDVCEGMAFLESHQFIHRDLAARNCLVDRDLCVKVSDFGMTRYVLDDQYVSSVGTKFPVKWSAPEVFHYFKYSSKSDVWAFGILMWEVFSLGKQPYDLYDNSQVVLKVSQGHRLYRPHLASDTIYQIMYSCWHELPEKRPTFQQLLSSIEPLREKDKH

COC(=O)Nc1cc(-c2c(C3CC3)n[nH]c2C)cc2[nH]ncc12
inhibition [1]: 17.7%
inhibition [2]: -4.7%
inhibition [3]: -3%

Cc1n[nH]c(C)c1-c1ccc2c(NC(=O)c3ccc(N4CCN(C)CC4)cc3)n[nH]c2c1
inhibition [4]: -1%

Cc1[nH]nc(C2CC2)c1-c1ccc2c(-c3ccc(N4CCN(C)CC4)nc3)n[nH]c2c1
inhibition [5]: -1%
inhibition [6]: 21.3%
inhibition [7]: 47.3%
inhibition [8]: 3.3%

— ChEMBL document CHEMBL4118098, “Discovery of DS28120313 as a potent orally active hepcidin production inhibitor: Design and optimization of novel 4,6-disubstituted indazole derivatives” (Bioorg Med Chem Lett, 2017)
